Test results reported in ChEMBL document CHEMBL4828736, “Discovery of ASTX029, A Clinical Candidate Which Modulates the Phosphorylation and Catalytic Activity of ERK1/2” (J Med Chem, 2021).

Experiments:
[1] = in vivo; conditions: BALB/c, mouse, iv, 0.5 mg/kg
[2] = in vivo; conditions: BALB/c, mouse, iv, 0.5 mg/kg; remark: listed apart in the source
[3] = in vivo; conditions: BALB/c, mouse, po, 5 mg/kg
[4] = in vivo; conditions: BALB/c, mouse, po, 5 mg/kg; remark: listed apart in the source
[5] = in vivo; conditions: BALB/c, mouse, po, 5 mg/kg; remark: listed apart in the source
[6] = in vitro; conditions: human, microsomes
[7] = target: CYP3A4 (Homo sapiens, UniProt P08684); test: in vitro; conditions: recombinant enzyme
Chain of CYP3A4 (P08684 whole entry): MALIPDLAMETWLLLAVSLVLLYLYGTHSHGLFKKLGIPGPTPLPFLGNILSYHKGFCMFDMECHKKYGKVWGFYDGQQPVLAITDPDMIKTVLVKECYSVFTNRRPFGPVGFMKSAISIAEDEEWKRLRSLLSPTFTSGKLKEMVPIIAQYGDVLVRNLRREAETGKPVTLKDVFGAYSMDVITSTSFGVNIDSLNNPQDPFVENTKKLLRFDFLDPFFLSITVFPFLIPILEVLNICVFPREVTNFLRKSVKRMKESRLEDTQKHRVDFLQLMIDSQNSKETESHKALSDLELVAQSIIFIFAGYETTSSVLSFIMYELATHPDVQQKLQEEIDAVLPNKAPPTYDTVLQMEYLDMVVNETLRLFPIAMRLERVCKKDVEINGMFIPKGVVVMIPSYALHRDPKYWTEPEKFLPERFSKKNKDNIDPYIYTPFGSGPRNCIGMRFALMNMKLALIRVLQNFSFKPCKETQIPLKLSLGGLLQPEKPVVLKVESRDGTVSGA

[8] = physchem; conditions: buffer, pH 7.4
[9] = in vitro; conditions: CD1, mouse, microsomes
[10] = system: COLO 205; test: cells; assay type: functional, cell-based; conditions: Homo sapiens, COLO 205, 96 h
[11] = target: Mitogen-activated protein kinase 1 (Homo sapiens) (UniProt P28482); conditions: dose 1.0 nM, time 30.0 min
Chain of Mitogen-activated protein kinase 1 (Homo sapiens) (P28482 whole entry): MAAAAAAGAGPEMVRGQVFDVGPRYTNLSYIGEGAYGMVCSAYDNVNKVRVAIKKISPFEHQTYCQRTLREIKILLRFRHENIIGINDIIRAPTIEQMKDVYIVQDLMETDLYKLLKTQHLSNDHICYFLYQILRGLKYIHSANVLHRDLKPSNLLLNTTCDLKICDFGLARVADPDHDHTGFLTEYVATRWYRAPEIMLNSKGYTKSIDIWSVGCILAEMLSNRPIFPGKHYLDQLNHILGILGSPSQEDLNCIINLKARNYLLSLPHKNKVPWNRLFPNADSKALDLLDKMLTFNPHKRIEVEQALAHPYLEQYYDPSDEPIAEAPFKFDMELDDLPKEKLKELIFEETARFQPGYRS

[12] = in vivo; conditions: rat, iv, 0.5 mg/kg
[13] = in vivo; conditions: Beagle, dog, iv
[14] = in vivo; conditions: rat, iv, 0.5 mg/kg; remark: listed apart in the source
[15] = in vivo; conditions: Beagle, dog, iv; remark: listed apart in the source
[16] = in vivo; conditions: rat, po, 1 mg/kg
[17] = in vivo; conditions: rat, po, 50 mg/kg
[18] = in vivo; conditions: rat, po, 100 mg/kg
[19] = in vivo; conditions: Beagle, dog, po, 0.5 mg/kg
[20] = in vivo; conditions: rat, po, 1 mg/kg; remark: listed apart in the source
[21] = in vivo; conditions: rat, po, 50 mg/kg; remark: listed apart in the source
[22] = in vivo; conditions: rat, po, 100 mg/kg; remark: listed apart in the source
[23] = in vivo; conditions: Beagle, dog, po, 0.5 mg/kg; remark: listed apart in the source
[24] = in vivo; conditions: rat, po, 1 mg/kg; remark: listed apart in the source
[25] = in vivo; conditions: rat, po, 50 mg/kg; remark: listed apart in the source
[26] = in vivo; conditions: rat, po, 100 mg/kg; remark: listed apart in the source
[27] = in vivo; conditions: Beagle, dog, po, 0.5 mg/kg; remark: listed apart in the source
[28] = in vivo; conditions: rat, po, 1 mg/kg; remark: listed apart in the source
[29] = in vivo; conditions: rat, po, 50 mg/kg; remark: listed apart in the source
[30] = in vivo; conditions: rat, po, 100 mg/kg; remark: listed apart in the source
[31] = in vivo; conditions: Beagle, dog, po, 0.5 mg/kg; remark: listed apart in the source
[32] = in vivo; conditions: rat, po, 1 mg/kg; remark: listed apart in the source
[33] = in vivo; conditions: rat, po, 50 mg/kg; remark: listed apart in the source
[34] = in vivo; conditions: rat, po, 100 mg/kg; remark: listed apart in the source
[35] = in vivo; conditions: Beagle, dog, po, 0.5 mg/kg; remark: listed apart in the source

COc1cc(F)cc([C@@H](CO)NC(=O)[C@@H](C)N2Cc3ccc(-c4nc(N[C@@H](C)CO)ncc4Cl)cc3C2=O)c1
clearance at 24 h [1]: 23 mL/min/kg
Vd at 24 h [2]: 1.4 L/kg
AUC at 24 h [3]: 310 ng·h/mL
half-life at 24 h [4]: 108 min
bioavailability at 24 h [5]: 9%
half-life at 40 min, 1 µM [6]: 28 min
half-life at 40 min, 1 µM [7]: 29 min
chromatographic logD [8]: 3.1

C[C@H](C(=O)N[C@H](CO)c1cccc(N2CCN(C)CC2)n1)N1Cc2ccc(-c3nc(NC4CCOCC4)ncc3Cl)cc2C1=O
clearance at 24 h [1]: 8.7 mL/min/kg
Vd at 24 h [2]: 0.76 L/kg
AUC at 24 h [3]: 1300 ng·h/mL
half-life at 24 h [4]: 60 min
bioavailability at 24 h [5]: 15%
half-life at 40 min, 1 µM [9]: 120 min
half-life at 40 min, 1 µM [6]: 36 min
half-life at 40 min, 1 µM [7]: 17 min
chromatographic logD [8]: 3.3

COc1cc(F)cc([C@@H](CO)NC(=O)[C@@H](C)N2Cc3ccc(-c4nc(Nc5cnn(C)n5)ncc4Cl)cc3C2=O)c1
IC50 [10]: 15 nM
clearance at 24 h [1]: 8.3 mL/min/kg
Vd at 24 h [2]: 0.46 L/kg
AUC at 24 h [3]: 6400 ng·h/mL
half-life at 24 h [4]: 90 min
bioavailability at 24 h [5]: 64%
half-life at 40 min, 1 µM [9]: 26 min
half-life at 40 min, 1 µM [6]: 26 min
half-life at 40 min, 1 µM [7]: 19 min
chromatographic logD [8]: 3.7

COc1cc(F)cc([C@@H](CO)NC(=O)[C@@H](C)N2Cc3ccc(-c4nc(NC5COC5)ncc4Cl)cc3C2=O)c1
IC50 [10]: 12 nM
inhibition [11]: 49%
clearance at 24 h [1]: 9.4 mL/min/kg
Vd at 24 h [2]: 0.71 L/kg
AUC at 24 h [3]: 2650 ng·h/mL
half-life at 24 h [4]: 102 min
bioavailability at 24 h [5]: 30%
half-life at 40 min, 1 µM [6]: 29 min
half-life at 40 min, 1 µM [7]: 50 min
chromatographic logD [8]: 3.3

COc1cc(F)cc([C@@H](CO)NC(=O)[C@@H](C)N2Cc3ccc(-c4nc(NC5CCOCC5)ncc4Cl)cc3C2=O)c1 [BEROTERKIB ANHYDROUS]
clearance at 24 h [1]: 22 mL/min/kg
Vd at 24 h [2]: 0.68 L/kg
AUC at 24 h [3]: 1600 ng·h/mL
half-life at 24 h [4]: 174 min
bioavailability at 24 h [5]: 42%
clearance at 24 h [12]: 18 mL/min/kg
clearance at 24 h [13]: 0.56 mL/min/kg
Vd at 24 h [14]: 0.77 L/kg
Vd at 24 h [15]: 0.071 L/kg
half-life at 24 h [16]: 90 min
half-life at 24 h [17]: 168 min
half-life at 24 h [18]: 150 min
half-life at 24 h [19]: 66 min
Tmax at 24 h [20]: 30 min
Tmax at 24 h [21]: 120 min
Tmax at 24 h [22]: 120 min
Tmax at 24 h [23]: 60 min
Cmax at 24 h [24]: 25.8 ng/mL
Cmax at 24 h [25]: 2740 ng/mL
Cmax at 24 h [26]: 15700 ng/mL
Cmax at 24 h [27]: 3660 ng/mL
AUC at 24 h [28]: 57.9 ng·h/mL
AUC at 24 h [29]: 17500 ng·h/mL
AUC at 24 h [30]: 118000 ng·h/mL
AUC at 24 h [31]: 12300 ng·h/mL
bioavailability at 24 h [32]: 6.1%
bioavailability at 24 h [33]: 35%
bioavailability at 24 h [34]: > 100%
bioavailability at 24 h [35]: 91%
half-life at 40 min, 1 µM [9]: 46 min
half-life at 40 min, 1 µM [6]: 33 min
chromatographic logD [8]: 3.8

COc1cccc([C@@H](CO)NC(=O)[C@@H](C)N2Cc3ccc(-c4nc(NC5CCOCC5)ncc4Cl)cc3C2=O)c1
half-life at 40 min, 1 µM [9]: 100 min
half-life at 40 min, 1 µM [6]: 27 min

COc1cc(F)cc([C@@H](CO)NC(=O)[C@@H](C)N2Cc3ncc(-c4nc(NC5CCOCC5)ncc4Cl)cc3C2=O)c1
IC50 [10]: 8 nM
clearance at 24 h [1]: 37 mL/min/kg
Vd at 24 h [2]: 1.9 L/kg
AUC at 24 h [3]: 500 ng·h/mL
half-life at 24 h [4]: 114 min
bioavailability at 24 h [5]: 23%
half-life at 40 min, 1 µM [6]: 36 min
half-life at 40 min, 1 µM [7]: 23 min
chromatographic logD [8]: 3.2

COc1cc(F)cc([C@@H](CO)NC(=O)[C@@H](C)N2Cc3ccc(-c4nc(Nc5ccnn5C)ncc4Cl)cc3C2=O)c1
IC50 [10]: 10 nM
clearance at 24 h [1]: 13 mL/min/kg
Vd at 24 h [2]: 0.52 L/kg
AUC at 24 h [3]: 824 ng·h/mL
half-life at 24 h [4]: 66 min
bioavailability at 24 h [5]: 13%
half-life at 40 min, 1 µM [9]: 35 min
half-life at 40 min, 1 µM [6]: 23 min
half-life at 40 min, 1 µM [7]: 13 min
chromatographic logD [8]: 3.3

O=C(CN1Cc2ccc(-c3nc(NC4CCOCC4)ncc3Cl)cc2C1=O)N1CCc2ccccc2CC1
clearance at 24 h [1]: 19 mL/min/kg
Vd at 24 h [2]: 0.45 L/kg
AUC at 24 h [3]: 440 ng·h/mL
half-life at 24 h [4]: 84 min
bioavailability at 24 h [5]: 10%
half-life at 40 min, 1 µM [9]: 28 min
half-life at 40 min, 1 µM [6]: 17 min
half-life at 40 min, 1 µM [7]: 28 min
chromatographic logD [8]: 4.7

O=C(CN1Cc2ccc(-c3nc(NC4CCOCC4)ncc3Cl)cc2C1=O)NCc1ccccc1
half-life at 40 min, 1 µM [9]: 65 min
half-life at 40 min, 1 µM [6]: 32 min

C[C@H](C(=O)N[C@H](CO)c1cc(F)cc(F)c1)N1Cc2ccc(-c3nc(NC4CCOCC4)ncc3Cl)cc2C1=O
half-life at 40 min, 1 µM [9]: 49 min
half-life at 40 min, 1 µM [6]: 23 min
half-life at 40 min, 1 µM [7]: < 5 min
